# According to patent US20090069320A1, “Substituted 4-Amino-Quinazoline Compounds with Metabotropic Glutamate Receptor Regulating Activity and Uses Thereof” (Gruenenthal GmbH, priority 2006, published 2009):
# Target: T1, mGluR5 receptor (Sus scrofa, UniProt I3LUI7)
# T1 construct: 450 μg of protein from brain homogenate with 5 nM ^3[H]-MPEP; from tissue; host or cells: pig brain halves without medulla, cerebellum and pons
# Test: [3H]-MPEP mGluR5 receptor binding assay (pig brain homogenate)
# Settings: 5 nM [3H]-MPEP, read-out: IC50 mGluR5 Receptor (pig) [^3H]-MPEP Bond
# Summary of the method: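 Compounds at 10 μM competed with 5 nM [3H]-MPEP for binding to pig brain membranes (450 μg protein) for 60 min at room temperature in pH 8.0 Hepes buffer. Bound radioactivity was collected on glass-fibre filters and read by β-counting, with 10 μM unlabelled MPEP giving non-specific binding.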
# T1 sequence (I3LUI7 19-1212): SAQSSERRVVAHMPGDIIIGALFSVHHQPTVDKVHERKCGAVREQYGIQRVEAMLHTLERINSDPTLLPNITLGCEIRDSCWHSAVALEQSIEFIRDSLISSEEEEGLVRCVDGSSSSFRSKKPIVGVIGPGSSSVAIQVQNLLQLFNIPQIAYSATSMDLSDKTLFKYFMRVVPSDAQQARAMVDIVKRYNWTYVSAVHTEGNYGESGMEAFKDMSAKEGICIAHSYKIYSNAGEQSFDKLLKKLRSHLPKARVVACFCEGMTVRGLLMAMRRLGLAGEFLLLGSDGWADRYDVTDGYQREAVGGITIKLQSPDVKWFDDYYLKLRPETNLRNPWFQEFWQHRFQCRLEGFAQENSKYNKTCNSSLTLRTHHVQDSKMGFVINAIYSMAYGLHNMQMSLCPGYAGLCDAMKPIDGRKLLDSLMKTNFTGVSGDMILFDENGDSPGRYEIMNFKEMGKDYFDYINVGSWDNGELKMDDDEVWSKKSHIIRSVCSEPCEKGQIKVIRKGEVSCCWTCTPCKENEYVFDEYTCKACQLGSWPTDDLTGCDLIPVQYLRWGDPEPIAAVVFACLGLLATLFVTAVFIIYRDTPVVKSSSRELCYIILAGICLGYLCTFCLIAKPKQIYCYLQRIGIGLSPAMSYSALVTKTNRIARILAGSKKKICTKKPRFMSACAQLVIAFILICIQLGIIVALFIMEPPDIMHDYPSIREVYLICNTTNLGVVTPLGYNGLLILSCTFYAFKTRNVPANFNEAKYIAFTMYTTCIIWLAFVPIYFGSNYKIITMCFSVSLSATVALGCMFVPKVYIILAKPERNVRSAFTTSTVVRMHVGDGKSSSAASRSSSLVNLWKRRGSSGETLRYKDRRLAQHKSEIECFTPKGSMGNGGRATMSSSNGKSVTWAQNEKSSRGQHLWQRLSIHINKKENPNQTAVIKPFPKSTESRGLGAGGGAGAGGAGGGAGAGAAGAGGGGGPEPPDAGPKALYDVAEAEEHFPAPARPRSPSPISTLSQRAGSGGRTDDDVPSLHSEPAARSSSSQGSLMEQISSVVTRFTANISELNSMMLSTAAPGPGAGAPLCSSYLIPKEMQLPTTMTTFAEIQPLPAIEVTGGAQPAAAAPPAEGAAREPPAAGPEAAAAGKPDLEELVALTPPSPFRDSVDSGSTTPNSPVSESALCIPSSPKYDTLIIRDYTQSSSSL
row,Structure (SMILES),IC50 [µM]
1,"O=C(c1ccno1)N(Cc1cc(-c2ccc3ncnc(NC4CC4)c3c2)ccc1F)C1CC1 [Example 457, N-cyclopropyl-N-(5-(4-(cyclopropylamino)quinazolin-6-yl)-2-fluorobenzyl)isoxazole-5-carboxamide]",0.21

# Same assay, conditions: 10 μM compound, 5 nM [3H]-MPEP
row,Structure (SMILES),% Inhibition of mGluR5 Receptor (pig) [^3H]-MPEP Bond at 10 μM [%]
1,"CCCCC(=O)N(C)Cc1cc(-c2ccc3ncnc(NCc4ccccc4)c3c2)ccc1F [Example 549, N-(5-(4-(benzylamino)quinazolin-6-yl)-2-fluorobenzyl)-N-methyl pentanamide]",32

# Same assay, conditions: 10 μM compound, 5 nM [3H]-MPEP, read-out: % Inhibition of mGluR5 Receptor (pig) [^3H]-MPEP Bond at 10 μM
row,Structure (SMILES),inhibition at 10 µM [%]
1,"Cc1cc(C(=O)N(Cc2cc(-c3ccc4ncnc(NC5CC5)c4c3)ccc2F)C2CC2)n(C)n1 [Example 435, N-cyclopropyl-N-(5-(4-(cyclopropylamino)quinazolin-6-yl)-2-fluorobenzyl)-1,3-dimethyl-1H-pyrazole-5-carboxamide]",87
2,"O=C(c1ccncc1)N(Cc1cc(-c2ccc3ncnc(NC4CC4)c3c2)ccc1F)C1CC1 [Example 436, N-cyclopropyl-N-(5-(4-(cyclopropylamino)quinazolin-6-yl)-2-fluorobenzyl)isonicotinamide]",98
3,"O=S(=O)(Cc1ccccc1)N(Cc1cc(-c2ccc3ncnc(NC4CC4)c3c2)ccc1F)C1CC1 [Example 437, N-cyclopropyl-N-(5-(4-(cyclopropylamino)quinazolin-6-yl)-2-fluorobenzyl)-1-phenylmethane sulfonamide]",90
4,"CS(=O)(=O)N(Cc1cccc(-c2ccc3ncnc(NCCc4ccccc4)c3c2)c1)C1CC1 [Example 440, N-cyclopropyl-N-(3-(4-(phenethylamino)quinazolin-6-yl)benzyl)methane sulfonamide]",73
5,"Cc1nc(NC2CC2)c2cc(-c3cccc(CN(C(=O)c4c(F)c(F)c(F)c(F)c4F)C4CC4)c3)ccc2n1 [Example 447, N-cyclopropyl-N-(3-(4-(cyclopropylamino)-2-methylquinazolin-6-yl)benzyl)-2,3,4,5,6-pentafluorobenzamide]",85
6,"O=C(C1CCCCC1)N(Cc1cc(-c2ccc3ncnc(NC4CC4)c3c2)ccc1F)C1CC1 [Example 452, N-cyclopropyl-N-(5-(4-(cyclopropylamino)quinazolin-6-yl)-2-fluorobenzyl)cyclohexane carboxamide]",71
7,"Cc1nc(NC2CC2)c2cc(-c3cccc(CN(C(=O)c4ccc(C(F)(F)F)cc4F)C4CC4)c3)ccc2n1 [Example 454, N-cyclopropyl-N-(3-(4-(cyclopropylamino)-2-methylquinazolin-6-yl)benzyl)-2-fluoro-4-(trifluoromethyl)benzamide]",34
8,"Cc1nc(NC2CC2)c2cc(-c3cccc(CN(C(=O)c4cccc(C(F)(F)F)c4)C4CC4)c3)ccc2n1 [Example 462, N-cyclopropyl-N-(3-(4-(cyclopropylamino)-2-methylquinazolin-6-yl)benzyl)-3-(trifluoromethyl)benzamide]",48
9,"Cc1nc(NC2CC2)c2cc(-c3ccc(F)c(CN(C(=O)c4ccccc4C(F)(F)F)C4CC4)c3)ccc2n1 [Example 470, N-cyclopropyl-N-(5-(4-(cyclopropylamino)-2-methylquinazolin-6-yl)-2-fluorobenzyl)-2-(trifluoromethyl)benzamide]",93
10,"CC(C)S(=O)(=O)N(C)Cc1cc(-c2ccc3ncnc(NCc4ccccc4)c3c2)ccc1F [Example 484, N-(5-(4-(benzylamino)quinazolin-6-yl)-2-fluorobenzyl)-N-methylpropane-2-sulfonamide]",63
11,"Cc1cc(C(=O)N(Cc2cccc(-c3ccc4nc(C)nc(NC5CC5)c4c3)c2)C2CC2)n(C)n1 [Example 485, N-cyclopropyl-N-(3-(4-(cyclopropylamino)-2-methylquinazolin-6-yl)benzyl)-1,3-dimethyl-1H-pyrazole-5-carboxamide]",32
12,"Cc1nc(NC2CC2)c2cc(-c3cccc(CN(C(=O)c4cccc(F)c4)C4CC4)c3)ccc2n1 [Example 509, N-cyclopropyl-N-(3-(4-(cyclopropylamino)-2-methylquinazolin-6-yl)benzyl)-3-fluorobenzamide]",31
13,"Cc1nc(NC2CC2)c2cc(-c3cccc(CN(C(=O)c4ccc(F)cc4F)C4CC4)c3)ccc2n1 [Example 517, N-cyclopropyl-N-(3-(4-(cyclopropylamino)-2-methylquinazolin-6-yl)benzyl)-2,4-difluorobenzamide]",59
14,"CCCCC(=O)N(Cc1cccc(-c2ccc3nc(C)nc(NC4CC4)c3c2)c1)C1CC1 [Example 519, N-cyclopropyl-N-(3-(4-(cyclopropylamino)-2-methylquinazolin-6-yl)benzyl)pentanamide]",76
15,"Cc1nc(NC2CC2)c2cc(-c3ccc(F)c(CN(C(=O)c4ccc(F)cc4F)C4CC4)c3)ccc2n1 [Example 524, N-cyclopropyl-N-(5-(4-(cyclopropylamino)-2-methylquinazolin-6-yl)-2-fluorobenzyl)-2,4-difluorobenzamide]",85
16,"Cc1nc(NC2CC2)c2cc(-c3ccc(F)c(CN(C(=O)c4ccc(C(F)(F)F)cc4F)C4CC4)c3)ccc2n1 [Example 532, N-cyclopropyl-N-(5-(4-(cyclopropylamino)-2-methylquinazolin-6-yl)-2-fluorobenzyl)-2-fluoro-4-(trifluoromethyl)benzamide]",61

row,Structure (SMILES),inhibition at 10 µM [%]
1,"CCCCC(=O)N(Cc1cc(-c2ccc3nc(C)nc(NC4CC4)c3c2)ccc1F)C1CC1 [Example 540, N-cyclopropyl-N-(5-(4-(cyclopropylamino)-2-methylquinazolin-6-yl)-2-fluorobenzyl)pentanamide]",91
2,"Cc1cc(C(=O)N(Cc2cc(-c3ccc4nc(C)nc(NC5CC5)c4c3)ccc2F)C2CC2)n(C)n1 [Example 542, N-cyclopropyl-N-(5-(4-(cyclopropylamino)-2-methylquinazolin-6-yl)-2-fluorobenzyl)-1,3-dimethyl-1H-pyrazole-5-carboxamide]",33
3,"Cc1nc(NC2CC2)c2cc(-c3cccc(CN(C(=O)Cc4ccccc4)C4CC4)c3)ccc2n1 [Example 544, N-cyclopropyl-N-(3-(4-(cyclopropylamino)-2-methylquinazolin-6-yl)benzyl)-2-phenylacetamide]",66
4,"Cc1nc(NC2CC2)c2cc(-c3ccc(F)c(CN(C(=O)c4ccccc4)C4CC4)c3)ccc2n1 [Example 550, N-cyclopropyl-N-(5-(4-(cyclopropylamino)-2-methylquinazolin-6-yl)-2-fluorobenzyl)benzamide]",40
5,"COCC(=O)N(C)Cc1cc(-c2ccc3ncnc(NCc4ccccc4)c3c2)ccc1F [Example 557, N-(5-(4-(benzylamino)quinazolin-6-yl)-2-fluorobenzyl)-2-methoxy-N-methylacetamide]",42
6,"COc1ccc(C(=O)N(Cc2cc(-c3ccc4nc(C)nc(NC5CC5)c4c3)ccc2F)C2CC2)cc1OC [Example 558, N-cyclopropyl-N-(5-(4-(cyclopropylamino)-2-methylquinazolin-6-yl)-2-fluorobenzyl)-3,4-dimethoxybenzamide]",42
7,"Cc1nc(NC2CC2)c2cc(-c3ccc(F)c(CN(C(=O)c4cccc(F)c4)C4CC4)c3)ccc2n1 [Example 566, N-cyclopropyl-N-(5-(4-(cyclopropylamino)-2-methylquinazolin-6-yl)-2-fluorobenzyl)-3-fluorobenzamide]",61
8,"Cc1nc(NC2CC2)c2cc(-c3ccc(F)c(CN(C(=O)c4c(F)c(F)c(F)c(F)c4F)C4CC4)c3)ccc2n1 [Example 574, N-cyclopropyl-N-(5-(4-(cyclopropylamino)-2-methylquinazolin-6-yl)-2-fluorobenzyl)-2,3,4,5,6-pentafluorobenzamide]",106
9,"CNc1ncnc2ccc(-c3ccc(F)c(CN(C)S(=O)(=O)C(C)C)c3)cc12 [Example 578, N-(2-fluoro-5-(4-(methylamino)quinazolin-6-yl)benzyl)-N-methylpropane-2-sulfonamide]",76
10,"Cc1nc(NC2CC2)c2cc(-c3ccc(F)c(CN(C(=O)c4cccc(C(F)(F)F)c4)C4CC4)c3)ccc2n1 [Example 582, N-cyclopropyl-N-(5-(4-(cyclopropylamino)-2-methylquinazolin-6-yl)-2-fluorobenzyl)-3-(trifluoromethyl)benzamide]",80
11,"CNc1ncnc2ccc(-c3ccc(F)c(CN(C)C(=O)c4c(F)c(F)c(F)c(F)c4F)c3)cc12 [Example 585, 2,3,4,5,6-pentafluoro-N-(2-fluoro-5-(4-(methylamino)quinazolin-6-yl)benzyl)-N-methylbenzamide]",70
12,"CNc1ncnc2ccc(-c3ccc(F)c(CN(C)S(=O)(=O)Cc4ccccc4)c3)cc12 [Example 586, N-(2-fluoro-5-(4-(methylamino)quinazolin-6-yl)benzyl)-N-methyl-1-phenylmethane sulfonamide]",62
13,"CNc1ncnc2ccc(-c3ccc(F)c(CN(C)C(=O)c4ccc(C(F)(F)F)cc4F)c3)cc12 [Example 593, 2-fluoro-N-(2-fluoro-5-(4-(methylamino)quinazolin-6-yl)benzyl)-N-methyl-4-(trifluoromethyl)benzamide]",52
14,"CC(=O)N(C)Cc1cc(-c2ccc3ncnc(NCc4ccccc4)c3c2)ccc1F [Example 595, N-(5-(4-(benzylamino)quinazolin-6-yl)-2-fluorobenzyl)-N-methylacetamide]",53
15,"Cc1nc(NC2CC2)c2cc(-c3ccc(F)c(CN(C(=O)CCc4ccccc4)C4CC4)c3)ccc2n1 [Example 601, N-cyclopropyl-N-(5-(4-(cyclopropylamino)-2-methylquinazolin-6-yl)-2-fluorobenzyl)-3-phenylpropanamide]",78
